This note sets out measurements from ChEMBL document CHEMBL4354864, “Bicyclic α-Iminophosphonates as High Affinity Imidazoline I2 Receptor Ligands for Alzheimer's Disease” (J Med Chem, 2020).

In experiment [1] the target is Nischarin (Homo sapiens, UniProt Q9Y2I1). The experiment in a line: Displacement of [3H]clonidine from I1IR in human brain frontal cortex in presence of adrenaline incubated for 45 mins by liquid scintillation spectrometry. It counts as tissue-based.
Experiment [2] is described as follows: Displacement of [3H]2-BFI from I2IR in human brain frontal cortex incubated for 45 mins by liquid scintillation spectrometry. In kind it is tissue-based. Background: Displacement assays read how much labelled ligand stays bound in the presence of the test substance.
Experiment [3] concerns the target T1, Alpha-2A adrenergic receptor (Homo sapiens, UniProt P08913).
T1 sequence (P08913 whole entry): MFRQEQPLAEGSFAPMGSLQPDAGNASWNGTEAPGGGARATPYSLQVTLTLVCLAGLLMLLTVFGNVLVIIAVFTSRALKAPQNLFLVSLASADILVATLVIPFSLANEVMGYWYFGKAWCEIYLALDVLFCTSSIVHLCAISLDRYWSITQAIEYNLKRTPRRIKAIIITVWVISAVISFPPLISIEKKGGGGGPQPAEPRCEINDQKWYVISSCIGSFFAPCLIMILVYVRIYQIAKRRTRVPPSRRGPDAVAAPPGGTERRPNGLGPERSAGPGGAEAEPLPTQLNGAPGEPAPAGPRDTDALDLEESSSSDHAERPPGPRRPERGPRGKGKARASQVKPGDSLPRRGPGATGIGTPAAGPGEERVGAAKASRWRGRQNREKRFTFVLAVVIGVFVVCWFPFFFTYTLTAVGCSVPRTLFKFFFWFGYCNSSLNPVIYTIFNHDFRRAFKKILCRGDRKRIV
Briefly: biochemical.
Description: Displacement of [3H]RX821002 from alpha2-AR in human brain frontal cortex incubated for 30 mins by liquid scintillation spectrometry

Experiment [4] is filed under the species Homo sapiens. The experiment in a line: Selectivity index, […] for alpha2-AR human brain frontal cortex […] in human brain frontal cortex.

Sequence of Nischarin (Q9Y2I1 whole entry): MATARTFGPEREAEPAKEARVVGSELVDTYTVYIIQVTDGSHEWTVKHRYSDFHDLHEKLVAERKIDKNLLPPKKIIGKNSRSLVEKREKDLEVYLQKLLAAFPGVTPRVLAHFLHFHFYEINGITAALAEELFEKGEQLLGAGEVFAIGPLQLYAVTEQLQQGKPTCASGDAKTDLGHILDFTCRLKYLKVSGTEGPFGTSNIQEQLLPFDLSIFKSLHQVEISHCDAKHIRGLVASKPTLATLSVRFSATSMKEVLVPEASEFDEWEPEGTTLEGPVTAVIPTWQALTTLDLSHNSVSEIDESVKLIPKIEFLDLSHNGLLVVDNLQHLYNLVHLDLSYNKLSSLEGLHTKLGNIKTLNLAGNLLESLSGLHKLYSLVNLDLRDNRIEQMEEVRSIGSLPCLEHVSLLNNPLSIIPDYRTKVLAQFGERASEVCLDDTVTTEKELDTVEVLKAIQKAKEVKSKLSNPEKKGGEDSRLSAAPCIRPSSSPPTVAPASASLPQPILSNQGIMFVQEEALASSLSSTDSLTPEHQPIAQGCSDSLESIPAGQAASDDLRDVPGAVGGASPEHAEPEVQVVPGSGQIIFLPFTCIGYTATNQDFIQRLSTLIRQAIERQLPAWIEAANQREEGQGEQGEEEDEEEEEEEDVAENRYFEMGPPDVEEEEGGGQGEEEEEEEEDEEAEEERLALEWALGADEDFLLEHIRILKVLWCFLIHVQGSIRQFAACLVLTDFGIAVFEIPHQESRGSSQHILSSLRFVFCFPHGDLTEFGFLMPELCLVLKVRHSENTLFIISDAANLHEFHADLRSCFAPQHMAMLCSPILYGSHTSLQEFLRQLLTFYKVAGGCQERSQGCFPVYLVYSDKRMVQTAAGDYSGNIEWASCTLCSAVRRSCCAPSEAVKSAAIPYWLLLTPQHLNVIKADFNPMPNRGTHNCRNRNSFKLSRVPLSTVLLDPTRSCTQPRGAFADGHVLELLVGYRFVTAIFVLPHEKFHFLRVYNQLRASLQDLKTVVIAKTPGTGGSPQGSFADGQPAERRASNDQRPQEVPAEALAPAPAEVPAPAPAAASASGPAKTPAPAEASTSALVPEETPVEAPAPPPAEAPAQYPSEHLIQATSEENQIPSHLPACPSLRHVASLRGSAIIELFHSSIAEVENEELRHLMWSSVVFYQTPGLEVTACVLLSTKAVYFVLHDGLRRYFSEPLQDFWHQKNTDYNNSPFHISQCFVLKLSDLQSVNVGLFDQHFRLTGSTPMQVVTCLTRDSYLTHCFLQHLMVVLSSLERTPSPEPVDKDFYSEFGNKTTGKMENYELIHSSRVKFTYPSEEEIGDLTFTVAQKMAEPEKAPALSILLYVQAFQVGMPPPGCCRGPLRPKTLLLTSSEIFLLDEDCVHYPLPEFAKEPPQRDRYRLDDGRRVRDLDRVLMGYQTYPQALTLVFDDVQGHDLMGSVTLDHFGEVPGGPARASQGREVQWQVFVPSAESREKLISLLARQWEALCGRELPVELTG

On to `CCOP(=O)(OCC)C1N=CC2C(=O)N(c3ccc(F)c(Cl)c3)C(=O)C21` (racemic), for which the IC50 in experiment [1] was more than 1000 µM. In experiment [2], this compound yielded a negative-log Ki (pKi) of less than 3. Besides, the Ki in experiment [3] was 0.00324 µM.
In turn, `CCOP(=O)(OCC)C1(c2ccccc2)N=CC2C(=O)N(C(C)(C)C)C(=O)C21` (racemic) returned a pKi in experiment [2] of 7.35. The compound also showed a Ki in experiment [3] of 0.17 µM. The Ratio pKi in experiment [4] was 3.
Compound `CCOP(=O)(OCC)C1(c2ccccc2)N=CC2C(=O)N(c3cccc(C(F)(F)F)c3)C(=O)C21` (racemic) came in with a negative-log Ki (pKi) in experiment [2] of less than 3.
For the compound `CCOP(=O)(OCC)C1(c2ccccc2)N=CC2C(=O)N(c3cc(Cl)cc(Cl)c3)C(=O)C21` (racemic), the pKi in experiment [2] amounted to 5.81. This compound also showed an inhibitory constant (Ki) in experiment [3] of 0.603 µM.
For the compound `CCOP(=O)(OCC)C1(c2ccccc2)N=CC2C(=O)N(c3ccc(C)cc3)C(=O)C21` (racemic), in experiment [2], the pKi turned out to be 5.44.
Compound `CCOP(=O)(OCC)C1(c2ccccc2)N=CC2C(=O)N(c3c(Cl)cc(Cl)cc3Cl)C(=O)C21` (racemic) displayed a pKi in experiment [2] of less than 3. Further, in experiment [3], the affinity corresponds to a Ki of 6.92 µM.
For `CCOP(=O)(OCC)C1(c2ccc(F)cc2)N=CC2C(=O)N(c3ccccc3)C(=O)C21` (racemic), in that order: less than 3 and 0.17 µM.
For the compound `CCOP(=O)(OCC)C1(c2ccccc2)N=CC2C(=O)N(CC34CC5CC(CC(C5)C3)C4)C(=O)C21` (racemic), in experiment [2], the pKi turned out to be 7.01. Also, the inhibition constant Ki in experiment [3] is 49 µM. Besides, the Ratio pKi in experiment [4] worked out at 501.
Turning to `CCOP(=O)(OCC)C1(c2ccccc2)N=CC2C(=O)N(c3cc([N+](=O)[O-])ccc3C)C(=O)C21` (racemic), the pKi in experiment [2] was less than 3.
In turn, `CCOP(=O)(OCC)C1(c2ccc(OC)cc2)N=CC2C(=O)N(c3ccc(F)c(Cl)c3)C(=O)C21` (racemic) showed a pKi in experiment [2] of 7.87. The same compound displayed a Ki in experiment [3] of more than 1000 µM. The Ratio pKi in experiment [4] worked out at 74100.
`CCOP(=O)(OCC)C1(c2ccccc2)N=CC2C(=O)N(c3ccc(Cl)cc3)C(=O)C21` (racemic) yielded a pKi in experiment [2] of less than 3.
Take `CCOP(=O)(OCC)C1(c2ccccc2)N=CC2C(=O)N(c3ccc(OC)cc3)C(=O)C21` (racemic): the IC50 in experiment [1] is 603 µM. The compound further had a pKi in experiment [2] of 6.65.
Consider `CCOP(=O)(OCC)C1(c2ccccc2)N=CC2C(=O)N(c3ccc(F)cc3)C(=O)C21` (racemic), for which, in experiment [2], the pKi is reported as less than 3. For the same compound, in experiment [3], affinity was put at a Ki of 4.57 µM.
For `CCCN1C(=O)C2C=NC(c3ccccc3)(P(=O)(OCC)OCC)C2C1=O` (racemic), in experiment [2], the negative logarithm of the Ki (pKi) amounted to 4.02.
Compound `CCOP(=O)(OCC)C1(c2ccccc2)N=CC2C(=O)N(c3ccc(Br)cc3)C(=O)C21` (racemic) had a pKi in experiment [2] of less than 3.
For `CCOP(=O)(OCC)C1(c2ccc(OC)cc2)N=CC2C(=O)N(c3ccccc3)C(=O)C21` (racemic), the negative logarithm of the Ki (pKi) in experiment [2] is given as 3.39. In addition, the Ki in experiment [3] was 141 µM.
With `CCOP(=O)(OCC)C1(c2ccccc2)N=CC2C(=O)N(CCc3ccccc3)C(=O)C21` (racemic), in experiment [1], the IC50 is 0.0105 µM. In experiment [2], this compound gave a pKi of 6.35. This compound showed a Ki in experiment [3] of 170 µM. Also, the Ratio pKi in experiment [4] was determined as 380.
With `CCOP(=O)(OCC)C1(c2ccccc2)N=CC2C(=O)N(Cc3ccccc3)C(=O)C21` (racemic), the IC50 in experiment [1] is 1.35 µM. This compound yielded a pKi in experiment [2] of 5.26.
For the compound `CCOP(=O)(OCC)C1N=CC2C(=O)N(c3ccccc3)C(=O)C21` (racemic), the IC50 in experiment [1] is 3.39 µM. In experiment [2], this compound had a pKi of 7.73. The inhibition constant Ki in experiment [3] was 9.55 µM.
Compound `CCOP(=O)(OCC)C1(c2ccccc2)N=CC2C(=O)N(c3cccc4ccccc34)C(=O)C21` (racemic) showed a pKi in experiment [2] of 3.11. The compound further had a Ki in experiment [3] of more than 1000 µM.
As to `CCOP(=O)(OCC)C1N=CC2C(=O)N(c3ccc(OC)cc3)C(=O)C21` (racemic), in experiment [1], the IC50 is 0.00813 µM. In experiment [2], this compound displayed a pKi of 5.11. This compound also showed a Ki in experiment [3] of 5.37e-05 µM.
Turning to `CCOP(=O)(OCC)C1(Cc2ccc(F)cc2)N=CC2C(=O)N(c3ccccc3)C(=O)C21` (racemic), in experiment [2], the pKi is given as 5.35. The same compound showed an inhibitory constant (Ki) in experiment [3] of 0.0631 µM.
Consider `CCOP(=O)(OCC)C1N=CC2C(=O)N(C3CCCCC3)C(=O)C21` (racemic), for which the IC50 in experiment [1] was 7.24 µM. In addition, the pKi in experiment [2] turned out to be 5.74. In addition, the affinity in experiment [3] corresponds to a Ki of 0.000324 µM. The Ratio pKi in experiment [4] was determined as 5.
The compound `CCOP(=O)(OCC)C1(c2ccccc2)N=CC2C(=O)N(c3ccc(C(F)(F)F)cc3)C(=O)C21` (racemic) registered a pKi in experiment [2] of less than 3. In addition, the affinity in experiment [3] corresponds to a Ki of 18.6 µM.
As to `CCOP(=O)(OCC)C1(c2ccccc2)N=CC2C(=O)N(c3cccc([N+](=O)[O-])c3)C(=O)C21` (racemic), the IC50 in experiment [1] is 5.5 µM. In experiment [2], the pKi is 6.81.
Turning to `CCOP(=O)(OCC)C1(c2ccccc2)N=CC2C(=O)N(c3ccc(Oc4ccccc4)cc3)C(=O)C21` (racemic), the pKi in experiment [2] was 6.96.
In the case of `CCOP(=O)(OCC)C1(c2ccccc2)N=CC2C(=O)N(C3CCCCC3)C(=O)C21` (racemic), in experiment [1], the IC50 is 0.0288 µM.
For the compound `CCOP(=O)(OCC)C1N=CC2C(=O)N(C)C(=O)C21` (racemic), the IC50 in experiment [1] was 7.41 µM. Besides, the pKi in experiment [2] is recorded as 6.79. This compound had a Ki in experiment [3] of 0.00447 µM.
`CCOP(=O)(OCC)C1(c2ccccc2)N=CC2C(=O)N(c3ccc(Cl)c(Cl)c3)C(=O)C21` (racemic): the pKi in experiment [2] was less than 3.
`CCOP(=O)(OCC)C1(c2ccc(F)cc2)N=CC2C(=O)N(c3ccc(F)c(Cl)c3)C(=O)C21` (racemic): the pKi in experiment [2] turned out to be 7.55. In experiment [3], affinity was put at a Ki of 417 µM. Further, the Ratio pKi in experiment [4] came out at 14800.
As to `CCOP(=O)(OCC)C1(c2ccccc2)N=CC2C(=O)N(c3ccccc3)C(=O)C21` (racemic), the half-maximal inhibitory concentration (IC50) in experiment [1] was 0.182 µM. Moreover, the pKi in experiment [2] was 10.28.
On to `CCOP(=O)(OCC)C1(c2ccccc2)N=CC2C(=O)N(c3cccnc3Cl)C(=O)C21` (racemic), for which the pKi in experiment [2] was 7.96. In experiment [3], this compound had a Ki of more than 1000 µM. Besides, in experiment [4], the Ratio pKi was 91200.
`CCOP(=O)(OCC)C1(c2ccccc2)N=CC2C(=O)N(c3ccc(-c4ccccc4)cc3)C(=O)C21` (racemic): the IC50 in experiment [1] was 0.0646 µM. In experiment [2], this compound showed a negative logarithm of the Ki (pKi) of 7.9.
Regarding `COc1nc(C)nc(Cl)c1N=C1NCCN1` [MOXONIDINE], the IC50 in experiment [1] is 0.00355 µM.
As to `CCOP(=O)(OCC)C1(c2ccccc2)N=CC2C(=O)N(c3cccc(Cl)c3)C(=O)C21` (racemic), the pKi in experiment [2] is listed as less than 3.
As to `CCOP(=O)(OCC)C1(Cc2ccccc2)N=CC2C(=O)N(c3ccccc3)C(=O)C21` (racemic), the IC50 in experiment [1] is 7.59 µM. The compound further displayed a pKi in experiment [2] of 6.59. In addition, the Ki in experiment [3] was 115 µM. The Ratio pKi in experiment [4] stood at 447.
In experiment [2], `CCOP(=O)(OCC)C1(c2ccccc2)N=CC2C(=O)N(CCc3ccc(F)cc3)C(=O)C21` (racemic) had a pKi of less than 3. Also, the affinity in experiment [3], expressed as Ki, was 2.24 µM.
`CCOP(=O)(OCC)C1(c2ccccc2)N=CC2C(=O)N(C)C(=O)C21` (racemic): in experiment [1], the concentration for half-maximal inhibition (IC50) is 0.646 µM. In addition, the pKi in experiment [2] was determined as 7.97. The affinity in experiment [3], expressed as Ki, was 1.17 µM. Also, the Ratio pKi in experiment [4] amounted to 110.

Usually IC50 stands for the concentration at which inhibition is half-maximal. What is called pKi is the Ki on a negative log10 scale, so that one unit is a factor of ten. In general, Ki refers to a measure of affinity in units of concentration, obtained from inhibition or displacement. Low readings indicate higher affinity, high ones lower affinity.
